One data set has as its system purified tubulin. Kind of data set: Inhibition of tubulin polymerization. Particulars: read-out: Inhibition of tubulin polymerization IC50 ± SD. Format: biochemical. From the text: As a reference for comparison, combretastatin A-4 (CA-4) and Cu(HL^1)Cl2 were used.
The methods used for determination of the IC50 values for tubulin assembly and inhibition of [^3H]colchicine binding were as described previously.[77]

Data set [1] in a line: Reduction by glutathione (GSH), UV–vis. The data set is classed as physicochemical. Particulars: pH 7.4, glove box. From the text: The reduction of complexes 1, 2, 4 and 5 by glutathione (GSH), one of the major cellular reductants, was investigated at pH 7.4 by recording UV–vis spectra in a glove box.

For the molecule `CC(=NN=C([S-])Nc1cc(C)c(O)c(C)c1)c1cccc(CN2CCOCC2)n1.CC(=NN=C([S-])Nc1cc(C)c(O)c(C)c1)c1cccc(CN2CCOCC2)n1.O=[N+]([O-])[O-].[Fe+3]` [Complex 4, [Fe^III(L^2)2]NO3], the IC50 in the data set with purified tubulin was found to be 3.4 ± 0.06 µM. For the same molecule, the “reduction by glutathione (GSH)” value in data set [1] is “reduction by GSH”.

The values are drawn from PMC11264232, “Are the metal identity and stoichiometry of metal complexes important for colchicine site binding and inhibition of tubulin polymerization?” (Dalton Transactions (Cambridge, England : 2003), 2024).
